The values below come from PubChem BioAssay AID248 (DTP/NCI, 2004).

Inconclusive results and toxic doses are left out.

In this assay the test system is L1210 leukemia ip in BDF1 mice, survival T/C. In words: NCI In Vivo Anticancer Drug Screen. Data for tumor model L1210 Leukemia (intraperitoneal) in B6D2F1 (BDF1) mice. The following applies: endpoint: mean survival time, higher = longer survival. The gist of the method: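 Transplanted-tumor mice were given test agent; controls received vehicle only. Survival readings from the two groups were divided (treated over control).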

Setting [1] is: dose: 100.0 mg/kg/injection, schedule: Q01DX009 (ip), vehicle: Klucel (hydroxypropylcellulose) (HPC).
[2] abbreviates: dose: 100.0 mg/kg/injection, schedule: Q04DX003 (ip), vehicle: Klucel (hydroxypropylcellulose) (HPC).
The mark [3] stands for this setting: dose: 200.0 mg/kg/injection, schedule: Q01DX009 (ip), vehicle: Klucel (hydroxypropylcellulose) (HPC).
[4] abbreviates: dose: 200.0 mg/kg/injection, schedule: Q04DX003 (ip), vehicle: Klucel (hydroxypropylcellulose) (HPC).
[5] abbreviates: dose: 400.0 mg/kg/injection, schedule: Q04DX003 (ip), vehicle: Klucel (hydroxypropylcellulose) (HPC).
Setting [6] is: dose: 50.0 mg/kg/injection, schedule: Q01DX001 (ip), vehicle: saline.
Where [7] appears, read: dose: 50.0 mg/kg/injection, schedule: Q01DX009 (ip), vehicle: saline.
[8] abbreviates: dose: 100.0 mg/kg/injection, schedule: Q01DX001 (ip), vehicle: other.
[9] abbreviates: dose: 100.0 mg/kg/injection, schedule: Q01DX001 (ip), vehicle: saline.
Where [10] appears, read: dose: 100.0 mg/kg/injection, schedule: Q01DX009 (ip), vehicle: saline.
[11] abbreviates: dose: 200.0 mg/kg/injection, schedule: Q01DX001 (ip), vehicle: other.
[12] abbreviates: dose: 200.0 mg/kg/injection, schedule: Q01DX009 (ip), vehicle: saline.
[13] abbreviates: dose: 50.0 mg/kg/injection, schedule: Q01DX009 (ip), vehicle: Klucel (hydroxypropylcellulose) (HPC).
[14] abbreviates: dose: 100.0 mg/kg/injection, schedule: Q04DX002 (ip), vehicle: Klucel (hydroxypropylcellulose) (HPC).
[15] abbreviates: dose: 100.0 mg/kg/injection, schedule: Q04DX003 (ip), vehicle: saline.
The mark [16] stands for this setting: dose: 200.0 mg/kg/injection, schedule: Q04DX003 (ip), vehicle: saline.

Turning to `Cc1nc(C)c([N+](=O)[O-])s1`, the T/C by setting is: under setting [1], 93 % of control; under setting [2], 100 % of control; under setting [3], 94 % of control; under setting [4], 96 % of control; (dose: 400.0 mg/kg/injection, schedule: Q01DX009 (ip), vehicle: Klucel (hydroxypropylcellulose) (HPC)) 101 % of control; under setting [5], 100 % of control.
Take `Nc1nc(N)c2cc(CNc3ccc(C(=O)NC(CC(=O)O)CC(=O)O)cc3)ccc2n1`: the T/C is 123 % of control (dose: 6.25 mg/kg/injection, schedule: Q01DX009 (ip), vehicle: saline); 167 % of control (dose: 6.3 mg/kg/injection, schedule: Q01DX009 (ip), vehicle: carboxymethylcellulose (CMC)); 157 % of control (dose: 10.0 mg/kg/injection, schedule: Q01DX009 (ip), vehicle: other); 152 % of control (dose: 12.5 mg/kg/injection, schedule: Q01DX009 (ip), vehicle: carboxymethylcellulose (CMC)); 180 % of control (dose: 25.0 mg/kg/injection, schedule: Q01DX009 (ip), vehicle: carboxymethylcellulose (CMC)); 158 % of control (dose: 25.0 mg/kg/injection, schedule: Q01DX009 (ip), vehicle: other). In addition, the T/C is, setting by setting: under setting [6], 109 % of control; (dose: 50.0 mg/kg/injection, schedule: Q01DX009 (ip), vehicle: carboxymethylcellulose (CMC)) 117 % of control; under setting [7], 216 % of control; under setting [8], 196 % of control; under setting [9], 114 % of control; (dose: 100.0 mg/kg/injection, schedule: Q01DX009 (ip), vehicle: carboxymethylcellulose (CMC)) 105 % of control. For the same compound, the T/C is, setting by setting: (dose: 100.0 mg/kg/injection, schedule: Q01DX009 (ip), vehicle: other) 101 % of control; under setting [10], 103 % of control; (dose: 133.0 mg/kg/injection, schedule: Q01DX001 (ip), vehicle: other) 175 % of control; under setting [11], 208 % of control; (dose: 200.0 mg/kg/injection, schedule: Q01DX009 (ip), vehicle: carboxymethylcellulose (CMC)) 88 % of control; (dose: 200.0 mg/kg/injection, schedule: Q01DX009 (ip), vehicle: other) 86 % of control. The T/C reads like this: under setting [12], 97 % of control; (dose: 300.0 mg/kg/injection, schedule: Q01DX001 (ip), vehicle: other) 166 % of control; (dose: 300.0 mg/kg/injection, schedule: Q01DX001 (ip), vehicle: saline) 122 % of control; (dose: 400.0 mg/kg/injection, schedule: Q01DX001 (ip), vehicle: other) 107 % of control; (dose: 600.0 mg/kg/injection, schedule: Q01DX001 (ip), vehicle: saline) 152 % of control.
For the compound `COc1ccc2ccccc2c1C1NC(=O)c2ccccc2N1` (stereo not drawn), the T/C was 97 % of control under setting [13]; 97 % of control under setting [1]; 92 % of control (dose: 150.0 mg/kg/injection, schedule: Q01DX009 (ip), vehicle: Klucel (hydroxypropylcellulose) (HPC)).
For `CC(=O)NCc1cc2c3c(c1)CCCN3CCC2`, the T/C was 97 % of control (dose: 50.0 mg/kg/injection, schedule: Q01DX009 (ip), vehicle: saline with Tween-80); 90 % of control (dose: 100.0 mg/kg/injection, schedule: Q01DX009 (ip), vehicle: saline with Tween-80); 90 % of control (dose: 100.0 mg/kg/injection, schedule: Q04DX003 (ip), vehicle: saline with Tween-80); 94 % of control (dose: 200.0 mg/kg/injection, schedule: Q01DX009 (ip), vehicle: saline with Tween-80); 100 % of control (dose: 200.0 mg/kg/injection, schedule: Q04DX003 (ip), vehicle: saline with Tween-80).
For the compound `CC(C)=CCC(N)C(C)c1ccccc1` (stereo not drawn), the T/C is 96 % of control (dose: 12.5 mg/kg/injection, schedule: Q01DX009 (ip), vehicle: Klucel (hydroxypropylcellulose) (HPC)); 98 % of control (dose: 25.0 mg/kg/injection, schedule: Q01DX009 (ip), vehicle: Klucel (hydroxypropylcellulose) (HPC)); 94 % of control (dose: 25.0 mg/kg/injection, schedule: Q04DX002 (ip), vehicle: Klucel (hydroxypropylcellulose) (HPC)); 104 % of control under setting [13]; 105 % of control (dose: 50.0 mg/kg/injection, schedule: Q04DX002 (ip), vehicle: Klucel (hydroxypropylcellulose) (HPC)); 102 % of control under setting [14].
For the compound `Cc1cccc(CCl)c1`, the T/C (dose: 37.5 mg/kg/injection, schedule: Q01DX009 (ip), vehicle: saline sonified) was 106 % of control; the T/C (dose: 75.0 mg/kg/injection, schedule: Q01DX009 (ip), vehicle: saline sonified) was 95 % of control; the T/C under setting [15] was 102 % of control; the T/C (dose: 150.0 mg/kg/injection, schedule: Q01DX009 (ip), vehicle: saline sonified) is 98 % of control; the T/C under setting [16] was 100 % of control; the T/C (dose: 400.0 mg/kg/injection, schedule: Q04DX003 (ip), vehicle: saline) is 93 % of control.
As to `CN1C(=O)OC2(CCN(Cc3ccccc3)CC2)C1=O`, the T/C is, setting by setting: under setting [2], 102 % of control; under setting [4], 90 % of control; under setting [5], 98 % of control.
Consider `OC1(C#CC2(O)CCCCC2)CCCCC1`, for which the T/C reads like this: under setting [13], 98 % of control; under setting [1], 89 % of control; under setting [2], 98 % of control; under setting [3], 102 % of control; under setting [4], 90 % of control.
As to `c1ccc(Sc2cc(Sc3ccccc3)c3cccccc2-3)cc1`, the T/C by setting is: (dose: 100.0 mg/kg/injection, schedule: Q01DX001 (ip), vehicle: carboxymethylcellulose (CMC)) 96 % of control; (dose: 200.0 mg/kg/injection, schedule: Q01DX001 (ip), vehicle: carboxymethylcellulose (CMC)) 100 % of control; (dose: 400.0 mg/kg/injection, schedule: Q01DX001 (ip), vehicle: carboxymethylcellulose (CMC)) 87 % of control.
With `CC1CN1P(=O)(Oc1ccccc1)N1CC1C` (stereo not drawn), the T/C (dose: 44.0 mg/kg/injection, schedule: Q01DX Z (ip), vehicle: saline) is 107 % of control; the T/C (dose: 67.0 mg/kg/injection, schedule: Q01DX Z (ip), vehicle: saline) is 107 % of control; the T/C (dose: 100.0 mg/kg/injection, schedule: Q01DX Z (ip), vehicle: saline) is 102 % of control; the T/C (dose: 150.0 mg/kg/injection, schedule: Q01DX Z (ip), vehicle: saline) was 122 % of control.
Consider `CC(C)(O)CCCC1CCC2C3CCC4CCCCC4(C)C3CCC2(C)C1O` (stereo not drawn), for which the T/C is 86 % of control (dose: 100.0 mg/kg/injection, schedule: Q04DX002 (ip), vehicle: DMSO); 96 % of control (dose: 200.0 mg/kg/injection, schedule: Q04DX002 (ip), vehicle: DMSO); 92 % of control (dose: 400.0 mg/kg/injection, schedule: Q04DX002 (ip), vehicle: DMSO).
Take `CNC(=O)Nc1cccc(C(F)(F)F)c1`: the T/C by setting is: under setting [1], 103 % of control; under setting [2], 102 % of control; under setting [3], 100 % of control; under setting [4], 102 % of control; under setting [5], 123 % of control.
With `NC(=S)NN=C1CCN(Cc2ccccc2)CC1`, the T/C is 95 % of control under setting [6] and 101 % of control under setting [9].
Consider `CCc1cc2c([nH]c3ccccc32)c(C)c1CCN(C)C`, for which the T/C was 101 % of control (dose: 50.0 mg/kg/injection, schedule: Q01DX001 (ip), vehicle: other); 97 % of control under setting [8]; 95 % of control under setting [11].
On to `CC(=O)Nc1cccnc1`, for which the T/C reads like this: under setting [7], 101 % of control; (dose: 50.0 mg/kg/injection, schedule: Q04DX003 (ip), vehicle: saline) 100 % of control; under setting [10], 101 % of control; under setting [15], 94 % of control; under setting [12], 98 % of control; under setting [16], 97 % of control.
With `C=CS(=O)CCCCCCCC` (stereo not drawn), the T/C runs as follows: under setting [14], 102 % of control; (dose: 200.0 mg/kg/injection, schedule: Q04DX002 (ip), vehicle: Klucel (hydroxypropylcellulose) (HPC)) 102 % of control.
`C/C(=N/O)c1ccncc1`: the T/C reads like this: under setting [2], 100 % of control; under setting [4], 95 % of control; under setting [5], 95 % of control.
